Experimental data reported in publication PMC12408681, “Tail-less precursors in synthetic cannabinoid production: investigating a clandestine laboratory, seized samples, and CB1 activity” (Archives of Toxicology, 2025).
Where “and” joins values, the source holds several entries; their conditions need not be identical. Equal entries are not always repeated.

Legend:
human CB1 [1] = target: T1, human CB1 (Homo sapiens, UniProt P21554); experiment: NanoBiT CB1 β-arrestin 2 recruitment assay; type: cell-based; design: expressed in transfected cells; conditions: for Efficacy (Emax) Mean Diff: CP55,940 as reference
Target sequence in this assay (P21554 whole entry): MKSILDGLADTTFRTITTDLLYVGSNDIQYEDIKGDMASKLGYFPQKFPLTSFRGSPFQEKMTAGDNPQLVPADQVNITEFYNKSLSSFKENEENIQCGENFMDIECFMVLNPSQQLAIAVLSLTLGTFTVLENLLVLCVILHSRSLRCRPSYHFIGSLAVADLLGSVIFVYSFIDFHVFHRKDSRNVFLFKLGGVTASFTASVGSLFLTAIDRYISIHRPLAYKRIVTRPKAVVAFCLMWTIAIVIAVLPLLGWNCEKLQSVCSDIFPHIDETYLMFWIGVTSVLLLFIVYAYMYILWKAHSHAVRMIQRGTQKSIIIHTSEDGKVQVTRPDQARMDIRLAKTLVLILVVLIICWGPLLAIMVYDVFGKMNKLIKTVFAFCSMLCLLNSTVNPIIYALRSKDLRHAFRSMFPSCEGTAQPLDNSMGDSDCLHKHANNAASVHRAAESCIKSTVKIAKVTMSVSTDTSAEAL
Target sequence in this assay (P32121 whole entry partner): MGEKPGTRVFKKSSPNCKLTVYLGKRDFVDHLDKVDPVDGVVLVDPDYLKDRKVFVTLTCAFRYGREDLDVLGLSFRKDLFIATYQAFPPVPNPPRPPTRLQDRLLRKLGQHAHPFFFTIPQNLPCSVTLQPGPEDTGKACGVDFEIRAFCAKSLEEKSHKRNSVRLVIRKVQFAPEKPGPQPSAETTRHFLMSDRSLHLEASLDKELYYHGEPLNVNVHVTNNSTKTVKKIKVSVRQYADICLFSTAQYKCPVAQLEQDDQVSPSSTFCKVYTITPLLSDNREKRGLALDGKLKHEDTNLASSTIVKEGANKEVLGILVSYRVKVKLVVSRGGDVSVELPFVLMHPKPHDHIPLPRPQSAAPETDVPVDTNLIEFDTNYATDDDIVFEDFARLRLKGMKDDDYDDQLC

human CB1 [2] = target: T1, human CB1; experiment: AequoScreen CB1 intracellular Ca2+ release assay; type: cell-based; design: host or cells: CHO-K1 (AequoZen recombinant cell line)
Target sequence in this assay (P21554 whole entry): as the sequence (P21554 whole entry) above

[3] = system: paclitaxel-induced peripheral neuropathy; design: method as in one study (reference not given); conditions: rats; ref one study (reference not given); cited from earlier work
[4] = vs 5% MDMB-4en-PINACA, only concentration of final product in mixture
[5] = vs 5% MDMB-4en-PINACA, total concentration of SCRAs in mixture
[6] = vs 25% MDMB-4en-PINACA, only concentration of final product in mixture
[7] = vs 25% MDMB-4en-PINACA, total concentration of SCRAs in mixture
[8] = vs 50% MDMB-4en-PINACA, only concentration of final product in mixture
[9] = vs 50% MDMB-4en-PINACA, total concentration of SCRAs in mixture
[10] = vs 75% MDMB-4en-PINACA, only concentration of final product in mixture
[11] = vs 75% MDMB-4en-PINACA, total concentration of SCRAs in mixture
[12] = Potency (EC50, nM) AequoScreen, Table 4, reference standards and mixtures, total SCRA concentration, n ≥ 3
[13] = Potency (EC50, nM) AequoScreen, Table 5, Ref (reference standard)
[14] = Table 4, reference standards and mixtures, total SCRA concentration
[15] = Table 5, Ref (reference standard)
[16] = Potency (EC50, nM) β-arrestin 2, Table 4, reference standards and precursor:final SCRA mixtures, total (combined) SCRA concentration, n ≥ 3
[17] = Potency (EC50, nM) β-arrestin 2, Table 5, Ref (reference standard)
[18] = Table 5, Ref (reference standard), read-out: Potency (EC50, nM) AequoScreen
[19] = Table 5, Ref (reference standard), read-out: Potency (EC50, nM) β-arrestin 2

CCCCn1nc(C(=O)N[C@H](C(N)=O)C(C)(C)C)c2ccccc21 [100% ADB-BUTINACA]
Efficacy (Emax) Mean Diff (human CB1 [1]; vs 5% ADB-BUTINACA, only concentration of final product in mixture): 76.63 | Efficacy (Emax) Mean Diff (human CB1 [1]; vs 5% ADB-BUTINACA, total concentration of SCRAs in mixture): 98.60 | Efficacy (Emax) Mean Diff (human CB1 [1]; vs 25% ADB-BUTINACA, only concentration of final product in mixture): 52.66 | Efficacy (Emax) Mean Diff (human CB1 [1]; vs 25% ADB-BUTINACA, total concentration of SCRAs in mixture): 66.35 | Efficacy (Emax) Mean Diff (human CB1 [1]; vs 50% ADB-BUTINACA, only concentration of final product in mixture): 144.9 | Efficacy (Emax) Mean Diff (human CB1 [1]; vs 50% ADB-BUTINACA, total concentration of SCRAs in mixture): 155.6 | Efficacy (Emax) Mean Diff (human CB1 [1]; vs 75% ADB-BUTINACA, only concentration of final product in mixture): 60.28 | Efficacy (Emax) Mean Diff (human CB1 [1]; vs 75% ADB-BUTINACA, total concentration of SCRAs in mixture): 70.25

C=CCCCn1nc(C(=O)N[C@H](C(=O)OC)C(C)(C)C)c2ccccc21 [100% MDMB-4en-PINACA]
Efficacy (Emax) Mean Diff (human CB1 [1]; [4]): -14.08 | Efficacy (Emax) Mean Diff (human CB1 [1]; [5]): -3.010 | Efficacy (Emax) Mean Diff (human CB1 [1]; [6]): -32.68 | Efficacy (Emax) Mean Diff (human CB1 [1]; [7]): -24.05 | Efficacy (Emax) Mean Diff (human CB1 [1]; [8]): -21.46 | Efficacy (Emax) Mean Diff (human CB1 [1]; [9]): -9.133 | Efficacy (Emax) Mean Diff (human CB1 [1]; [10]): 14.76 | Efficacy (Emax) Mean Diff (human CB1 [1]; [11]): 26.09

COC(=O)[C@@H](NC(=O)c1n[nH]c2ccccc12)C(C)(C)C [100% MDMB-INACA]
Efficacy (Emax) Mean Diff (human CB1 [2]; vs 5% MDMB-4en-PINACA, only concentration of final product in mixture, JWH-018 as reference): 2.037 | Efficacy (Emax) Mean Diff (human CB1 [2]; vs 5% MDMB-4en-PINACA, total concentration of SCRAs in mixture, JWH-018 as reference): 6.744 | Efficacy (Emax) Mean Diff (human CB1 [2]; vs 25% MDMB-4en-PINACA, only concentration of final product in mixture, JWH-018 as reference): -0.07601 | Efficacy (Emax) Mean Diff (human CB1 [2]; vs 25% MDMB-4en-PINACA, total concentration of SCRAs in mixture, JWH-018 as reference): 2.036 | Efficacy (Emax) Mean Diff (human CB1 [2]; vs 50% MDMB-4en-PINACA, only concentration of final product in mixture, JWH-018 as reference): 9.030 | Efficacy (Emax) Mean Diff (human CB1 [2]; vs 50% MDMB-4en-PINACA, total concentration of SCRAs in mixture, JWH-018 as reference): -0.07656 | Efficacy (Emax) Mean Diff (human CB1 [2]; vs 75% MDMB-4en-PINACA, only concentration of final product in mixture, JWH-018 as reference): 6.745 | Efficacy (Emax) Mean Diff (human CB1 [2]; vs 75% MDMB-4en-PINACA, total concentration of SCRAs in mixture, JWH-018 as reference): 9.029 | Efficacy (Emax) Mean Diff (human CB1 [2]; vs 100% MDMB-4en-PINACA, only concentration of final product in mixture, JWH-018 as reference): 8.229 | Efficacy (Emax) Mean Diff (human CB1 [2]; vs 100% MDMB-4en-PINACA, total concentration of SCRAs in mixture, JWH-018 as reference): 8.229 | Efficacy (Emax) Mean Diff (human CB1 [1]; [4]): 550.8 | Efficacy (Emax) Mean Diff (human CB1 [1]; [5]): 539.7 | Efficacy (Emax) Mean Diff (human CB1 [1]; [6]): 569.4 | Efficacy (Emax) Mean Diff (human CB1 [1]; [7]): 560.7 | Efficacy (Emax) Mean Diff (human CB1 [1]; [8]): 558.2 | Efficacy (Emax) Mean Diff (human CB1 [1]; [9]): 545.8 | Efficacy (Emax) Mean Diff (human CB1 [1]; [10]): 521.9 | Efficacy (Emax) Mean Diff (human CB1 [1]; [11]): 510.6 | Efficacy (Emax) Mean Diff (human CB1 [1]; vs 100% MDMB-4en-PINACA, only concentration of final product in mixture): 536.7 | Efficacy (Emax) Mean Diff (human CB1 [1]; vs 100% MDMB-4en-PINACA, total concentration of SCRAs in mixture): 536.7

CCCCn1nc(C(=O)NC(C(N)=O)C(C)(C)C)c2ccccc21 (stereo not shown) [ADB-BUTINACA]
EC50 (human CB1 [2]; [12]): 5.6 nM and 5.64 nM | EC50 (human CB1 [2]; [13]): 7.27 nM | Efficacy (% of JWH-018) Emax AequoScreen (human CB1 [2]; [14]): 105 % of JWH-018 | Efficacy (% of JWH-018) Emax AequoScreen (human CB1 [2]; [15]): 111 % of JWH-018 | EC50 (human CB1 [1]; [16]): 6.7 nM and 6.73 nM | EC50 (human CB1 [1]; [17]): 5.65 nM | Efficacy (% of CP55,940) Emax β-arrestin 2 (human CB1 [1]; [14]): 1282 % of CP55,940 and 1280 % of CP55,940 | Efficacy (% of CP55,940) Emax β-arrestin 2 (human CB1 [1]; [15]): 1330 % of CP55,940

CC(C)(C)C(NC(=O)c1n[nH]c2ccccc12)C(N)=O (stereo not shown) [ADB-INACA]
Analgesic effects on paclitaxel-induced peripheral neuropathy [3]: analgesic effects

CCCCCn1cc(C(=O)c2cccc3ccccc23)c2ccccc21 [JWH-018, reference compound]
Efficacy (% of JWH-018) Emax AequoScreen (human CB1 [2]; [14]): 97.6 % of JWH-018 | EC50 (human CB1 [2]; Table 4, reference standards and mixtures, total SCRA concentration, n ≥ 3, read-out: Potency (EC50, nM) AequoScreen): 5.14 nM | Efficacy (% of JWH-018) Emax AequoScreen (human CB1 [2]; [15]): 99.8 % of JWH-018 | EC50 (human CB1 [2]; [18]): 13.5 nM | Efficacy (% of CP55,940) Emax β-arrestin 2 (human CB1 [1]; [14]): 335 % of CP55,940 | EC50 (human CB1 [1]; Table 4, reference standards and precursor:final SCRA mixtures, total (combined) SCRA concentration, n ≥ 3, read-out: Potency (EC50, nM) β-arrestin 2): 9.55 nM | Efficacy (% of CP55,940) Emax β-arrestin 2 (human CB1 [1]; [15]): 352 % of CP55,940 | EC50 (human CB1 [1]; [19]): 11 nM

C=CCCCn1nc(C(=O)NC(C(=O)OC)C(C)(C)C)c2ccccc21 (stereo not shown) [MDMB-4en-PINACA, methyl 3,3-dimethyl-2-(1-(pent-4-en-1-yl)-1H-indazole-3-carboxamido)butanoate]
EC50 (human CB1 [2]; [12]): 1.2 nM and 1.17 nM | EC50 (human CB1 [2]; [13]): 1.89 nM | Efficacy (% of JWH-018) Emax AequoScreen (human CB1 [2]; [14]): 104 % of JWH-018 | Efficacy (% of JWH-018) Emax AequoScreen (human CB1 [2]; [15]): 109 % of JWH-018 | EC50 (human CB1 [1]; [16]): 1.8 nM | EC50 (human CB1 [1]; [17]): 1.8 nM | Efficacy (% of CP55,940) Emax β-arrestin 2 (human CB1 [1]; [14]): 1088 % of CP55,940 and 1090 % of CP55,940 | Efficacy (% of CP55,940) Emax β-arrestin 2 (human CB1 [1]; [15]): 1090 % of CP55,940

COC(=O)[C@@H](NC(=O)c1n[nH]c2ccccc12)C(C)(C)C [MDMB-INACA (ref)]
Efficacy (Emax) Mean Diff (human CB1 [2]; vs MDMB-INACA (seizure), CP55,940 as reference): 1.797 | Efficacy (Emax) Mean Diff (human CB1 [1]; vs MDMB-INACA (seizure)): -144.0

COC(=O)C(NC(=O)c1n[nH]c2ccccc12)C(C)(C)C (stereo not shown) [MDMB-INACA]
EC50 (human CB1 [2]; [18]): 11200 nM | EC50 (human CB1 [2]; Table 5, Seizure (precursor seized in Switzerland), read-out: Potency (EC50, nM) AequoScreen): 7610 nM | Analgesic effects on paclitaxel-induced peripheral neuropathy [3]: analgesic effects | Efficacy (% of CP55,940) Emax β-arrestin 2 (human CB1 [1]; [15]): 294 % of CP55,940 | EC50 (human CB1 [1]; [19]): 2400 nM | Efficacy (% of CP55,940) Emax β-arrestin 2 (human CB1 [1]; Table 5, Seizure (precursor seized in Switzerland)): 438 % of CP55,940 | EC50 (human CB1 [1]; Table 5, Seizure (precursor seized in Switzerland), read-out: Potency (EC50, nM) β-arrestin 2): 2190 nM
